Source: patent US11504439B2, “Radioactive compound for diagnosis of malignant melanoma and use thereof” (INDUSTRY FOUNDATION OF CHONNAM NATIONAL UNIVERSITY, priority 2017, dated 2022)

Experiments:
melanoma = conditions: cited from earlier work; for detection rate for melanoma: melanoma patients
B16F10 cell line tumor [1] = assay: Body distribution in small animal model of tumor transplantation; assay type: in vivo, nude mice
Method: (§1) In order to confirm the in vivo distribution of [^18F]DMFB, experiments were performed on nude mice whose tumor was grown to 100 to 150 mm^3 after about 10 days of injection of the B16F10 cell line into the right shoulder region. [^18F]DMFB was injected into the tail vein of the tumor-bearing mice at a dose of 7.4 MBq and sacrificed at 10, 30, 60, and 120 minutes, respectively to excise tumor tissue, blood and organs, and distribution of the radioactive compound was confirmed. The excised organs were measured by the gamma counter in each of the organs including blood, heart, lung, liver, spleen, stomach, intestine, kidney, pancreas, normal muscle, bone, brain, skin and eyes. The results were corrected by organ weight and expressed as a percentage of injections per gram of tissue (% ID/g).
as §1, with “In addition, in” for “In”, “[^18F]DMPY2 prepared in the example 3-2,” for “[^18F]DMFB,”, “tumors were” for “tumor was”, “[^18F]DMPY2” for “[^18F]DMFB”, “30,” for “30, 60,”, “60” for “120”

[2] = test system: B16F10 metastatic foci (lung, liver, lymph node); assay: In vivo distribution and PET imaging in lung/liver metastatic model mice; parameters: species or system C57BL/6 mice; conditions: 60 minutes from administering, lung metastasis model animal
Method: In order to examine the in vivo distribution and dynamics of [^18F]DMFB in lung/liver metastatic animal model, the present inventors divided C57BL/6 mice into two groups, one were injected with 1×10^5 cells of B16F10 cell line into the tail vein and the other were not injected with the tumor cells. After 14 days from the tumor cell inoculation, 7.4 MBq of [^18F]DMFB was injected into lung metastatic model mice and normal mice via tail vein, respectively and visualized at 60 min. Likewise, liver metastatic mice prepared by injecting 1×10^5 cells of B16F10 cell line into the tale vein were injected with 7.4 MBq of [^18F]DMFB into the tail vein. After 60 minutes of the administration, micro PET image was obtained. This liver metastatic model mice were produced among mice survived after a certain time after the induction of lung metastasis. Mice survived after the induction lung metastasis have metastasized to the lymph nodes and other organs after time elapse. […] After obtaining the images, the metastatic model mice and normal mice were sacrificed and lung and liver were excised and uptake ratio of the excised lung and liver were measured by a gamma counter. The results were corrected by organ weight and expressed as a percentage of injections per gram of tissue (% ID/g). […]

B16F10 cell line tumor [3] = assay: Micro PET imaging using xenograft tumor mouse model; assay type: in vivo, nude mouse; conditions: for signals in other organs (micro PET): 1 hour / 60 min after injection
Method: To confirm the in vivo dynamics of [^18F]DMFB, B16F10 cell line was injected into the right shoulder region, and about 10 days later, micro PET was performed using a nude mouse bearing tumor ranging in size of 100-150 mm^3. The nude mice were anesthetized with Isoflurane inhalation and then injected with 7.4 MBq of [^18F]DMFB into the tail vein. Static micro PET images were obtained at 10, 30, and 60 minutes after injection of the radioactive compound. Tumor uptake was determined and the images were reconstructed using 3D-ordered subset expectation maximization (3D-OSEM).
In addition, the in vivo dynamics of [^18F] DMPY2 was also analyzed by the same method as described above except that micro PET images were taken at 30 and 60 minutes after injection.

B16F10 melanoma cells = assay: Melanoma cell uptake ratio experiment; assay type: cell-based, mouse
Method: B16F10 cell line, a mouse malignant melanoma cell line, was cultured in 5% CO2 in DMEM medium. Twenty-four hours prior to the experiment, cells were plated at 5×10^5 cells/well in 12-well plates and treated with 0.275 mM L-tyrosine-supplemented medium and non-supplemented medium, respectively. Then the cells were treated with 0.74 MBq of [18F]DMFB and incubated at 37° C. for 10, 30, and 60 min, respectively. After washing with PBS twice, the cells were treated with trypsin and the degree of [^18F]DMFB in the cell culture medium and cells in each time group was measured with a gamma counter, respectively. Three experiments were performed for each time group, and the results were expressed as percentage of the amount absorbed by cells versus the amount treated into the plate.

[4] = In vitro stability test in human serum; assay type: in vitro ADME; conditions: 1.0 ml human serum, 37° C., 2 hours, ITLC-sg / radio TLC
Method: For in vitro stability test, 0.74 MBq/100 μl of [^18F] DMFB was dissolved in 1.0 ml human serum and then evaluated at 37° C. for 2 hours. The structural stability was measured by ITLC-sg. ITLC-sg (1×10 cm) was developed using MC:MeOH=10:1. The results were confirmed by radio TLC.

Melanin binding assay = assay: Melanin binding assay
Method: 0.74 MBq of [^18F] DMFB was reacted with 2 mg of melanin and 10 ml of distilled water for 10, 30, 60, and 120 minutes at 37° C. with stirring. Then, centrifugation was performed at 16,800 rpm for 10 minutes, and […] of the supernatant was measured with a gamma counter. Percentages (%) of [^18F]DMFB bound to melanin were calculated based on the mixture of [^18F]DMFB and distilled water alone without melanin.

B16F10 xenograft tumor = assay: Comparison of [^18F]DMPY2 and [^18F]FDG, micro PET in melanoma xenograft model mice; assay type: in vivo; conditions: 1 hour after injection, 7.4 MBq
Method: (§2) The present inventors compared the imaging capabilities for melanoma and lung metastasis of the melanoma of [^18F]DMPY2 according to one embodiment of the present invention with the [^18F]FDG which has been used as a PET contrast agent for diagnosing cancer previously.
Particularly, melanoma xenograft model mice were prepared in the same manner as in Experimental Example 5, and then 7.4 MBq of [^18F]DMPY2 and [^18F]FDG were injected respectively, and systemic micro PET images were obtained at 1 hour after the injection.

[5] = test system: lung metastasis of melanoma; assay: Comparison of [^18F]DMPY2 and [^18F]FDG, micro PET in lung metastasis model mice; assay type: in vivo; conditions: 1 hour after injection, 7.4 MBq
Method: as §2
In addition, after lung metastasis model mice were prepared in the same manner as in Experimental Example 6, 7.4 MBq of [^18F]DMPY2 and [^18F]FDG were injected, respectively, and systemic micro PET images were obtained at 1 hour after the injection.

[6] = with time after injection (10, 30, 60 minutes)

[11CH3]SCC[C@H](N)C(=O)O [^11C-methionine, L-[methyl-^11C]methionien]
detection rate for melanoma (melanoma): extremely low

CN(C)CCNC(=O)c1ccc([18F])cc1 [[^18F]DMFB, N-(2-(dimethylamino)ethyl)-4-[^18F]fluorobenzamide]
radioactivity in internal organs (blood, heart, liver, lung, kidney) (B16F10 cell line tumor [1]; 10 minutes after injection, 7.4 MBq tail vein): strong radioactivity was detected | absorption ratio in stomach, liver, and kidney (B16F10 cell line tumor [1]; 1 hour after injection): relatively low | absorption ratio in tumor tissues (B16F10 cell line tumor [1]; 1 hour after injection): highest | radioactivity in the tumor tissue (B16F10 cell line tumor [1]; elapsed time of 2 hours): maintained | radioactivity in the visceral organs (B16F10 cell line tumor [1]; elapsed time of 2 hours): hardly detected | detection of lung metastatic cancer (micro PET) [2]: possible to detect a lung metastatic cancer | signals in other organs (micro PET) (B16F10 cell line tumor [3]): maintaining signal in other organs | radiation in the tumor tissue (micro PET) (B16F10 cell line tumor [3]; [6]): maintained | radioactivity in the liver (micro PET) (B16F10 cell line tumor [3]; [6]): decreased with time | uptake in B16F10 melanoma cells (B16F10 melanoma cells; L-tyrosine not treated): hardly absorbed | uptake in B16F10 melanoma cells (B16F10 melanoma cells; medium supplemented with tyrosine (0.275 mM L-tyrosine), 10 to 60 minutes): significantly increased | structural stability in human serum [4]: very stable even after 2 hours | binding rate to melanin (Melanin binding assay; 2 mg melanin, 37° C., 10 to 120 minutes): ≥ 85% | change of melanin binding rate over time (Melanin binding assay; after 120 minutes): did not significantly decrease

O=C[C@H]([18F])[C@@H](O)[C@H](O)[C@H](O)CO [[^18F]FDG, F-18-fluoro-deoxyglucose, reference compound]
background noise (micro PET) (B16F10 xenograft tumor): background noise was widespread throughout the whole body | signal in tumor tissue (micro PET) (B16F10 xenograft tumor): showed a signal in the tumor tissue | identification of metastatic foci with less than 1 cm in diameter (melanoma; lung, liver, and brain): failed to identify | signals / noise in other organs (micro PET) [5]: stronger than the lungs | suitability for diagnosing lung metastasis of melanoma [5]: unsuitable

Cc1cn([C@H]2C[C@H]([18F])[C@@H](CO)O2)c(=O)[nH]c1=O [^18F-FLT, 3′-^18F-fluoro-3′-deoxy-L-thymidine]
detection rate for melanoma (melanoma): extremely low

N[C@@H](Cc1cc(O)c(O)cc1[18F])C(=O)O [^18F-DOPA, 6-^18F-Fluoro-L-dihydroxyphenylalanine]
detection rate for melanoma (melanoma): extremely low

CN(C)CCNC(=O)c1ccc([18F])cn1 [[^18F]DMPY2]
signal in tumor tissue (micro PET) (B16F10 xenograft tumor): clear signal only in tumor tissue | signal to noise ratio (micro PET) (B16F10 xenograft tumor): very high | absorption ratio in tumor tissues (B16F10 cell line tumor [1]; 1 hour after injection): accumulated most in tumor tissue | signal in other organs such as kidney (B16F10 cell line tumor [1]; over time to 1 hour after injection): rapidly decreased | signals in other organs (micro PET) (B16F10 cell line tumor [3]): very weak | signal in melanoma tumor tissue (micro PET) (B16F10 cell line tumor [3]; 1 hour after injection): clearly observed | signal in the metastatic lung (micro PET) [5]: very strong signal | signals / noise in other organs (micro PET) [5]: little or no noise in other organs except bladder
